Paper PMC9540525 (Cancer, 2022)

Key:
[1] = system: solid tumor cell lines, including small cell lung cancer, and acute myeloid leukemia cell lines; settings: solid tumor cell lines incl. SCLC, and AML cell lines; cited from earlier work
[2] = system: progastrin‐releasing peptide [pro‐GRP]; assay: Phase 1 study: serum progastrin-releasing peptide; type: in vivo, human; settings: dose expansion, NENs
[3] = system: MMD gene expression in peripheral blood; assay: Phase 1 study: MMD gene expression in peripheral blood; type: in vivo, human; settings: dose expansion, 60 mg once per week
[4] = dose escalation, cited from earlier work
[5] = Phase 1 study: treatment duration, modification, exposure and disposition; type: in vivo, human; settings: dose expansion, NEN cohort, n=16
[6] = system: patient‐derived xenograft models; settings: cited from earlier work

COc1ccc(-c2c(-c3ccc(C#N)c(F)c3)nc(N3CCC(N)CC3)n(C)c2=O)cc1F [CC‐90011]
antiproliferative activity in vitro [1]: has antiproliferative activity in various solid tumor cell lines in vitro | patients in whom pro-GRP levels decreased [2]: 15 of 16 | patients with a pro-GRP decrease >30% [2]: 11 of 16 | downregulation in MMD gene expression in the peripheral blood [3]: ≥ 50% | dose-limiting toxicity [4]: Thrombocytopenia was the only dose‐limiting toxicity reported | maximum tolerated dose ([4]; once per week): 80 mg | nontolerated dose ([4]; once per week): 120 mg | recommended phase 2 dose (RP2D) ([4]; once per week): 60 mg | ≥1 dose interruption due to AE [5]: 10 (63%) n (%) | antiproliferative activity in patient-derived xenograft models [6]: demonstrated antiproliferative activity
